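Method: 48-hour compound exposure of cells in 96-well plates, five concentrations, linear interpolation of endpoints. GI50 = concentration required for 50% inhibition of growth.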 Active and inactive are the calls of the source. Cut-off read from the data, not from the text of the source: active = GI50 up to about 1.1 µM and inactive = higher. Square brackets hold non-standard residues; d marks the D form. Peptide text beside a SMILES is read from it. * marks the point of attachment. ξ: configuration not given here. ξD = NC(CC(=O)O)C(=O)O; Ac3c = NC1(C(=O)O)CC1; Boc = CC(C)(C)OC(=O)*; OtBu = CC(C)(C)O*
How the values were obtained:
Experiment in all cases: NCI-60 cell line screen, 48 h
OVCAR-4 = system: OVCAR-4
NCI-H23 = system: NCI-H23
CAKI-1 = system: CAKI-1
LOX IMVI = system: LOX IMVI
NCI-H226 = system: NCI-H226
HL-60 = system: HL-60
Malme-3M = system: Malme-3M
RXF 393 = system: RXF 393
SNB-19 = system: SNB-19
HCC 2998 = system: HCC 2998
COLO 205 = system: COLO 205
EKVX = system: EKVX
SR = system: SR
A549 = system: A549
A498 = system: A498
HT-29 = system: HT-29
MOLT-4 = system: MOLT-4
SK-MEL-28 = system: SK-MEL-28
SF-295 = system: SF-295
DU-145 = system: DU-145

Compound | GI50 (OVCAR-4) | GI50 (NCI-H23) | GI50 (CAKI-1) | GI50 (LOX IMVI) | GI50 (NCI-H226) | GI50 (HL-60) | GI50 (Malme-3M) | GI50 (RXF 393) | GI50 (SNB-19) | GI50 (HCC 2998) | GI50 (COLO 205) | GI50 (EKVX) | GI50 (SR) | GI50 (A549) | GI50 (A498) | GI50 (HT-29) | GI50 (MOLT-4) | GI50 (SK-MEL-28) | GI50 (SF-295) | GI50 (DU-145)
COC(=O)C(C(=O)C(=O)Nc1ccc(C)cc1C)c1csc(-n2nc(-c3ccccc3)cc2-c2ccccc2)n1 (stereo unspecified) | 82.4 µM (inactive) | > 100 µM (inactive) | > 100 µM (inactive) | 80 µM (inactive) | 80.2 µM (inactive) | > 100 µM (inactive) | > 100 µM (inactive) | 92 µM (inactive) | > 100 µM (inactive) | > 100 µM (inactive) | > 100 µM (inactive) | 73.3 µM (inactive) | > 100 µM (inactive) | > 100 µM (inactive) | > 100 µM (inactive) | 31.4 µM (inactive) | 22.5 µM (inactive) |  |  | 
COc1cc2c(cc1O)CCN[C@@]21CS[C@H]2c3c(OC(C)=O)c(C)c4c(c3C(COC1=O)N1C2C2NC(Cc3cc(C)c(OC)c(O)c32)[C@@H]1C#N)OCO4 (stereo partly specified) | < 0.01 µM (active) | < 0.01 µM (active) |  | < 0.01 µM (active) | < 0.01 µM (active) | < 0.01 µM (active) | < 0.01 µM (active) | < 0.01 µM (active) | < 0.01 µM (active) | < 0.01 µM (active) | < 0.01 µM (active) | < 0.01 µM (active) | < 0.01 µM (active) | < 0.01 µM (active) | < 0.01 µM (active) | < 0.01 µM (active) | < 0.01 µM (active) | < 0.01 µM (active) |  | 
[O-][N+]1=C(c2ccccc2)COc2ccccc21 | > 100 µM (inactive) | > 100 µM (inactive) | > 100 µM (inactive) | 96.4 µM (inactive) | > 100 µM (inactive) | > 100 µM (inactive) | > 100 µM (inactive) | > 100 µM (inactive) | > 100 µM (inactive) | > 100 µM (inactive) | > 100 µM (inactive) |  | 47.5 µM (inactive) | > 100 µM (inactive) | > 100 µM (inactive) | > 100 µM (inactive) | > 100 µM (inactive) | > 100 µM (inactive) | > 100 µM (inactive) | 
COC(=O)/C([Se]c1c(C)cc(C)cc1C)=C(\[Se]c1c(C)cc(C)cc1C)C(=O)OC | > 100 µM (inactive) | > 100 µM (inactive) | > 100 µM (inactive) | > 100 µM (inactive) | > 100 µM (inactive) | > 100 µM (inactive) | > 100 µM (inactive) | > 100 µM (inactive) | > 100 µM (inactive) | > 100 µM (inactive) | > 100 µM (inactive) | > 100 µM (inactive) | > 100 µM (inactive) | > 100 µM (inactive) | > 100 µM (inactive) | > 100 µM (inactive) | > 100 µM (inactive) |  | > 100 µM (inactive) | 
C=CC[C@@]1(C#N)C[C@H](C[C@]2(C#N)C[C@H](CCl)OC(C)(C)O2)OC(C)(C)O1 | > 100 µM (inactive) | > 100 µM (inactive) | > 100 µM (inactive) | > 100 µM (inactive) | 38.4 µM (inactive) | 36 µM (inactive) | > 100 µM (inactive) | > 100 µM (inactive) | > 100 µM (inactive) | > 100 µM (inactive) | > 100 µM (inactive) | > 100 µM (inactive) | 60.7 µM (inactive) | > 100 µM (inactive) | > 100 µM (inactive) | > 100 µM (inactive) | 72.8 µM (inactive) | > 100 µM (inactive) | > 100 µM (inactive) | 
CC(=O)Oc1cc2c(n(C)c1=O)CCC2 | > 100 µM (inactive) | > 100 µM (inactive) | > 100 µM (inactive) | 96.4 µM (inactive) | > 100 µM (inactive) | 81.5 µM (inactive) | > 100 µM (inactive) |  | > 100 µM (inactive) | 81.7 µM (inactive) | > 100 µM (inactive) | > 100 µM (inactive) |  | > 100 µM (inactive) | > 100 µM (inactive) | > 100 µM (inactive) | > 100 µM (inactive) | > 100 µM (inactive) | > 100 µM (inactive) | > 100 µM (inactive)
NC(=O)NNCc1ccccc1 | > 100 µM (inactive) | > 100 µM (inactive) | > 100 µM (inactive) | > 100 µM (inactive) | > 100 µM (inactive) | > 100 µM (inactive) |  | > 100 µM (inactive) | > 100 µM (inactive) | > 100 µM (inactive) | > 100 µM (inactive) | > 100 µM (inactive) |  | > 100 µM (inactive) | > 100 µM (inactive) | > 100 µM (inactive) | > 100 µM (inactive) |  | > 100 µM (inactive) | > 100 µM (inactive)
C=C(C)CC1(O)C(=O)C(OCC)=C1OCC (stereo unspecified) | > 100 µM (inactive) | > 100 µM (inactive) | > 100 µM (inactive) | > 100 µM (inactive) | > 100 µM (inactive) | > 100 µM (inactive) | 48.1 µM (inactive) |  | > 100 µM (inactive) |  | > 100 µM (inactive) | > 100 µM (inactive) |  | > 100 µM (inactive) | > 100 µM (inactive) | > 100 µM (inactive) | > 100 µM (inactive) | > 100 µM (inactive) | > 100 µM (inactive) | > 100 µM (inactive)
c1ccc(N2N=NC3C4CC(C5c6ccccc6C45)C32)cc1 (stereo unspecified) | 27.3 µM (inactive) | 24 µM (inactive) | 31 µM (inactive) | 18.8 µM (inactive) | 37.8 µM (inactive) | 19.1 µM (inactive) | 20.8 µM (inactive) | 15.4 µM (inactive) | 69.5 µM (inactive) |  | 41.4 µM (inactive) | 37.4 µM (inactive) | 20.2 µM (inactive) | 33.8 µM (inactive) | 39.1 µM (inactive) | 19.6 µM (inactive) | 17.1 µM (inactive) |  | 38.4 µM (inactive) | 
CN(NC(=O)c1cccs1)C1=NCCCN1 | > 100 µM (inactive) | > 100 µM (inactive) |  | > 100 µM (inactive) | > 100 µM (inactive) | > 100 µM (inactive) | > 100 µM (inactive) | > 100 µM (inactive) | > 100 µM (inactive) | > 100 µM (inactive) | > 100 µM (inactive) | 85.9 µM (inactive) | > 100 µM (inactive) | > 100 µM (inactive) | > 100 µM (inactive) | > 100 µM (inactive) | > 100 µM (inactive) | > 100 µM (inactive) | > 100 µM (inactive) | 
CC(=O)N(C(C)=O)n1nc2c(n1)C(=O)c1ccccc1C2=O | > 100 µM (inactive) | > 100 µM (inactive) | > 100 µM (inactive) | > 100 µM (inactive) |  | > 100 µM (inactive) | 68.1 µM (inactive) | > 100 µM (inactive) | > 100 µM (inactive) |  | > 100 µM (inactive) | > 100 µM (inactive) |  | > 100 µM (inactive) | > 100 µM (inactive) | > 100 µM (inactive) | > 100 µM (inactive) | > 100 µM (inactive) | > 100 µM (inactive) | > 100 µM (inactive)
Cc1ccc2nc(NC(=O)/C(=N\NC(=S)NN)C3C(=O)NC(=S)NC3=O)sc2c1 | > 100 µM (inactive) | > 100 µM (inactive) | > 100 µM (inactive) | > 100 µM (inactive) | > 100 µM (inactive) | > 100 µM (inactive) | > 100 µM (inactive) | > 100 µM (inactive) | > 100 µM (inactive) | > 100 µM (inactive) | > 100 µM (inactive) | > 100 µM (inactive) | > 100 µM (inactive) | > 100 µM (inactive) | > 100 µM (inactive) | > 100 µM (inactive) | > 100 µM (inactive) | > 100 µM (inactive) | > 100 µM (inactive) | 
COC1=C(C)C(=O)C2=C(C1=O)C1C3CC4=C(C(=O)C(OC)=C(C)C4=O)C(CNC(=O)C(C)=O)N3C(C#N)C(C2)N1C (stereo unspecified) | 0.0405 µM (active) | 0.00385 µM (active) | 0.00516 µM (active) | 0.00129 µM (active) | 0.0177 µM (active) | 0.00328 µM (active) | 0.00678 µM (active) | 0.00496 µM (active) | 0.00804 µM (active) | 0.00629 µM (active) | 0.00274 µM (active) | 0.104 µM (active) |  | 0.182 µM (active) |  | 0.00388 µM (active) | 0.00838 µM (active) | 0.00511 µM (active) | 0.0202 µM (active) | 0.00545 µM (active)
c1ccc(/N=C2\c3ccccc3CN2c2ccccn2)nc1 | > 100 µM (inactive) | 71.9 µM (inactive) | > 100 µM (inactive) | 96.2 µM (inactive) | > 100 µM (inactive) | < 0.01 µM (active) |  | > 100 µM (inactive) | > 100 µM (inactive) | 37.8 µM (inactive) | 58.6 µM (inactive) | > 100 µM (inactive) |  | > 100 µM (inactive) | > 100 µM (inactive) | 34.2 µM (inactive) | 54.6 µM (inactive) | > 100 µM (inactive) | > 100 µM (inactive) | > 100 µM (inactive)
COC(=O)C1(NC(=O)C(CC(=O)OC(C)(C)C)NC(=O)OC(C)(C)C)CC1 (stereo unspecified) (Boc-[ξD](OtBu)-[Ac3c]-OMe) | > 100 µM (inactive) | > 100 µM (inactive) | > 100 µM (inactive) | > 100 µM (inactive) | > 100 µM (inactive) |  | > 100 µM (inactive) | > 100 µM (inactive) | > 100 µM (inactive) | > 100 µM (inactive) | > 100 µM (inactive) | > 100 µM (inactive) |  | > 100 µM (inactive) | > 100 µM (inactive) | > 100 µM (inactive) | > 100 µM (inactive) | > 100 µM (inactive) | > 100 µM (inactive) | > 100 µM (inactive)

Source: ChEMBL document CHEMBL1201862, “PubChem BioAssay data set” (2004)
